Laboratory results taken from PMC11204543, “Halenaquinol Blocks Staphylococcal Protein A Anchoring on Cell Wall Surface by Inhibiting Sortase A in Staphylococcus aureus” (Marine Drugs, 2024).
In brackets after ≈: the same amount, converted by molar mass. Several values for one entry are separate records, joined by “and”; a condition that tells them apart may be missing. Equal values may be shown once. Entries after “also recorded” stand apart in the source; their conditions may differ. Where a name gives a salt, the structure may show the parent alone. Read-outs that look alike come from different tables or passages of the source.

Legend:
S. aureus SrtA = details: cited from earlier work
S. aureus ATCC6538p = experiment: Antibacterial activity (CLSI broth dilution MIC); format: cell-based; details: Staphylococcus aureus, 12 h
Protocol: (§1) The SrtA inhibitory activity of compounds 1–6, along with that of a known SrtA inhibitor, quercetin [24], was evaluated in vitro using a fluorescence-based enzymatic assay. Recombinant SrtA from S. aureus ATCC6538p was expressed in Escherichia coli and was purified using nickel affinity chromatography. The cleavage of a synthetic peptide substrate by the SrtA enzyme emitted fluorescence, which was then measured. Table 1 presents the half maximal inhibitory concentration (IC50) values calculated from SrtA inhibition rates. […] As SrtA inhibitors act as anti-infective agents by disrupting bacterial pathogenesis without affecting microbial viability, minimum inhibitory concentration (MIC) values were examined to determine their effects on bacterial cell growth.
An assessment of the antibacterial properties of the isolated compounds was conducted in accordance with the protocols provided by the Clinical and Laboratory Standard Institute (CLSI). The S. aureus ATCC6538p strain was cultivated overnight at 37 °C in Mueller–Hinton broth (MHB, BD Difco, Sparks, MD, USA). Subsequently, it was harvested using centrifugation, rinsed with sterilized deionized water, and adjusted to the optical density of a 0.5 McFarland standard (625 nm). Test compounds, initially dissolved in DMSO, were further diluted with MHB to achieve a range of 2-fold serial dilutions from 0.25 to 128 μg/mL (maintaining a final DMSO concentration of 1%). In a 96-well plate, 90 μL of the MHB containing the test compound were combined with 10 μL of broth inoculated with the bacterium (final bacterial concentration: 5 × 10^5 cfu/mL). Following a 12 h incubation at 37 °C, the MICs were determined as the lowest concentration at which bacterial growth was inhibited. Ampicillin (Duchefa, Amsterdam, The Netherlands) served as the reference standard.

[1] = molecular target: T1, Recombinant SrtA from S. aureus ATCC6538p (Staphylococcus aureus, UniProt Q2FV99); experiment: SrtA inhibition assay (fluorescence-based enzymatic assay, Abz-LPETG-Dnp substrate); format: biochemical; details: for IC50: SrtA IC50, recombinant SrtA from S. aureus ATCC6538p, mean ± SD (n = 3); for SrtA inhibitory activity in words: similar to that of quercetin
T1 construct: no tag is named in the print; made in house; host or cells: Escherichia coli
Protocol: as §1
To determine the type of inhibition, kinetic studies were performed with halenaquinol at IC50 or twofold IC50 based on a Lineweaver and Burk plot (Figure 2A). Inhibitor constants were obtained by a Dixon plot (Figure 2B). […] Moreover, the binding of halenaquinol to SrtA was reversible because the enzyme activity was recovered by dialysis, excluding the possible existence of a covalent bond between inhibitor and enzyme.
The recombinant SrtA protein from S. aureus ATCC6538p was prepared using a previously described method. Each reaction comprised a 100 μL mixture containing a reaction buffer (50 mM Tris-HCl pH 7.5, 150 mM NaCl, and 5 mM CaCl2), 250 ng of synthetic fluorescent peptide substrate (Abz-LPETG-Dnp), 20 μg of SrtA, and varying concentrations of test samples. DMSO served as the negative control, while quercetin [24] was employed as the positive control. Test sample was dissolved in DMSO and then diluted with reaction buffer to yield a final DMSO concentration of 1%. The reaction mixture was aliquoted into a 96-well plate. Following the addition of SrtA, fluorescence intensity was determined using a microplate reader at excitation and emission wavelengths of 320 nm and 420 nm, respectively. The plate was then incubated for 1 h at 37 °C, and fluorescence intensity was measured. The effect of the inhibitor on SrtA was calculated as a percentage relative to the DMSO-treated control. The percentage of SrtA inhibition was calculated using the following equation: {1 − (Difference value of the test compound/Difference value of a negative control)} × 100. A 12-point, twofold serial dilution dose–response assay was performed independently in triplicate. The resultant dose–response concentration range was 128 to 0.1 μg/mL of inhibitor. Data were scaled to internal controls, and a four-parameter logistic model (SigmaPlot ver. 10.0) was used to fit the measured data and determine the IC50 values. In order to investigate the inhibition type and inhibition constant (Ki) values of halenaquinol, SrtA enzyme activity was monitored in various concentrations of substrate in the absence and presence of halenaquinol. All reactions were repeated three times and enzyme kinetics were evaluated using Lineweaver–Burk and Dixon plots.

[2] = tested on: srtA and spa mRNA expression in S. aureus Newman; experiment: Semiquantitative reverse transcription PCR of srtA and spa mRNA; format: cell-based, Staphylococcus aureus
From the text: To ascertain whether halenaquinol inhibits the transcription of srtA or blocks its function at an enzyme level without affecting the expression of the srtA gene, the mRNA expression level of srtA in response to various concentrations and exposure times of halenaquinol was initially explored using semi-quantitative reverse transcription PCR (RT-PCR). Total RNA isolated from S. aureus Newman was transcribed into cDNA, and it was used as a template to amplify the target genes. A time-course analysis assessed the impact of halenaquinol on srtA expression at different intervals from 0 to 60 min. […] Furthermore, the expression level of srtA was analyzed after 40 min of incubation at various concentrations of halenaquinol.
Figure 3 Effect of SrtA inhibitors on srtA and spa mRNA expression. S. aureus Newman cells were incubated in the presence of halenaquinol and quercetin. mRNA expression levels of cells were examined using semiquantitative RT-PCR. (A) The time courses of mRNA expression of gyrB and srtA were monitored. Total RNA was isolated from cells grown in medium containing 0.2% dimethyl sulfoxide (DMSO, negative control), halenaquinol or quercetin (positive control). (B) Cells were grown in medium containing the indicated concentrations of halenaquinol or quercetin. The gyrB gene was used as a loading control.
The S. aureus Newman strain was inoculated into 5 mL of trypticase soy broth (TSB) and incubated overnight at 37 °C with shaking. Cultures were diluted 1:100 into TSB and grown until the OD600 reached approximately 0.3. Cultures (5 mL) were aliquoted, and the test compound was added with less than 0.2% DMSO. The negative control group was treated with DMSO only. Cultures were then incubated at 37 °C with shaking and harvested at specific incubation times. Then, 1 mL of each culture was centrifuged, and the pellet was stored at −80 °C. RNA was isolated using the easy-BLUE total RNA extraction kit (iNtRON Biotechnology, Boston, MA, USA). […]

[3] = tested on: SpA anchoring on cell wall surface of S. aureus Newman; experiment: SpA cell wall surface anchoring after trypsin removal, Western blot with anti-SpA antibody; format: cell-based, Staphylococcus aureus; details: trypsin-treated wild type, 1 h
Protocol: The anchoring of SpA on the cell-wall surface in S. aureus was measured using Western blot analysis with monoclonal anti-SpA antibody (Figure 4). […] Then, trypsin-treated wild-type S. aureus cells were incubated in medium containing an SrtA inhibitor, halenaquinol, over a concentration range of 1-to-4 times the IC50 values.
The effect of the test compound on the in vivo inhibition of S. aureus SrtA was investigated by quantifying the abundance of SpA, catalyzed by the transpeptidation of SrtA on the bacterial surface [26]. […] For this study, S. aureus Newman (wild-type), a human clinical isolate, and its isogenic srtA-deletion mutant (ΔsrtA) were utilized [6, 37]. These strains were inoculated into 5 mL of TSB and incubated for 16 h at 37 °C with shaking. Cultures were then diluted 1:100 into TSB and were grown until the OD600 reached approximately 0.5. Cells from a 10 mL culture were harvested, rinsed with phosphate-buffered saline (PBS, Sigma–Aldrich), suspended in 5 mL of PBS containing 0.2 mg/mL trypsin (Sigma-Aldrich), incubated at 37 °C with shaking for 1 h, and washed with PBS. Subsequently, the cells were incubated in 5 mL of TSB containing 1 mM phenylmethylsulfonyl fluoride (PMSF), with the test compound at 37 °C with shaking for 1 h. Negative control groups were treated with DMSO solvent instead of the test compound. Then, aliquots (1 mL) were removed, and the cells were harvested and stored at −80 °C.
S. aureus cells, prepared as described above, were suspended in 1 mL of ice-cold PBS containing 1 mM PMSF. A 1% (w/v) solution of Sulfo-NHS-SS-Biotin was prepared, and it was added (100 μL) to 1 mL of cells, resulting in a final concentration of 1.5 mM Sulfo-NHS-SS-Biotin. The cells were then incubated with gentle shaking at 80 rpm for 2 h on ice and were collected using centrifugation (4000× g, 5 min, 4 °C). To halt the biotinylation reaction, cells were washed three times with 1 mL of ice-cold PBS containing 500 mM glycine. Next, the cells were suspended in 500 μL of lysis buffer containing 100 μg/mL lysostaphin (Sigma–Aldrich) and 2 mM PMSF. […]

[4] = tested on: SpA surface display on S. aureus Newman; experiment: Immunofluorescence microscopy of SpA surface display; format: cell-based, Staphylococcus aureus; details: 8 × IC50 (111.52 μM)
Protocol: Figure 5 Fluorescence microscopy images of SpA surface display. […] BF identifies the bright-field microscopy view of fluorescence microscopy images. Scale bar, […].
The surface display of SpA was visualized following established procedures. A solution of 0.01% poly-L-lysine (Sigma-Aldrich) was added to each well of an 8-well glass chamber slide (SPL) and incubated at 25 °C for 5 min to coat the slide. After washing each well with distilled water and ensuring complete drying, 1 mL of cells, prepared as described above for the re-expression of the cell surface protein, was suspended in PBS containing 0.05% Tween 80 (PBST) and was thoroughly vortexed. A total of 250 μL of suspension was removed and incubated at 25 °C for 20 min with 250 μL of PBS (2.4% paraformaldehyde, 0.006% glutaraldehyde, and 0.05% Tween 80). The fixed cells were washed twice with PBST, and 150 μL of cells were added to the coated slide and incubated at 25 °C for 5 min. […] After washing seven times, anti-fade fluorescence mounting medium (Abcam, Cambridge, UK) was added. […] Images were captured using AiryScan fluorescence detectors and a transmitted light detector (T-PMT) under 10× scan zoom, bidirectional scan, 4× averaging. All the images were analyzed in ZEN 2.1 software (Carl Zeiss).

S. mutans SrtA = details: cited from earlier work

T1 sequence (Q2FV99 whole entry): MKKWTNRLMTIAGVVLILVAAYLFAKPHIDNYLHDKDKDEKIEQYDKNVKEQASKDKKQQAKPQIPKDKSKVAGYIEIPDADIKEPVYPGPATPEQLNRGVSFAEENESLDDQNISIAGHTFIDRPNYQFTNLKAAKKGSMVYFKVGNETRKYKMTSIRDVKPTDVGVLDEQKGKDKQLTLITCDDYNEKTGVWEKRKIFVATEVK

COc1ccc(/C(C#N)=C/c2cc(OC)ccc2OC)cc1 [(Z)-3-(2,5-dimethoxyphenyl)-2-(4-methoxyphenyl) acrylonitrile]
IC50 (S. aureus SrtA; SrtA inhibition): 9.2 µM | manner of binding the enzyme (S. aureus SrtA): reversible | type of inhibition (S. aureus SrtA): competitive inhibitor

CC1(C)S[C@@H]2[C@H](NC(=O)[C@H](N)c3ccccc3)C(=O)N2[C@H]1C(=O)O [Ampicillin, reference compound]
MIC (S. aureus ATCC6538p; ATCC6538P): 0.4 µM and 0.1 µg/mL

C[C@@]12CCC(=O)c3coc(c31)C(=O)c1cc3c(O)ccc(OS(=O)(=O)O)c3cc12 [Compound 1, halenaquinol sulfate]
IC50 [1]: 103 µM | SrtA inhibitory activity in words [1]: moderate inhibitory activities | MIC (S. aureus ATCC6538p; ATCC6538P): 309 µM and > 128 µg/mL

C[C@@]12CCC(=O)c3coc(c31)C(=O)c1cc3c(O)ccc(O)c3cc12 [Compound 2, halenaquinol]
Ki [1]: 9.55 µM | type of inhibition ([1]; Lineweaver-Burk plot at IC50 or twofold IC50): mixed inhibitor | IC50 [1]: 13.9 µM | reversibility of binding to SrtA ([1]; enzyme activity recovered by dialysis): reversible | SrtA inhibitory potency relative to halenaquinol sulfate ([1]; ratio of IC50 values): approximately 9.2 times | MIC (S. aureus ATCC6538p; ATCC6538P): 383 µM and > 128 µg/mL | inhibition of the transcription of srtA and spA ([2]; S. aureus Newman, semi-quantitative RT-PCR): does not inhibit | PCR band intensity representing mRNA expression of srtA and spa ([2]; after 40 min of incubation, increasing concentrations): slightly increased | PCR band intensity representing srtA mRNA expression ([2]; time course 0 to 60 min, gyrB consistent): increased over time | anchoring of SpA on cell wall surface ([3]; 1 × IC50 (13.94 μM)): no significant difference from the wild type | reduction of SpA anchoring ([3]; 2 × IC50 (27.88 μM)): approximately 53% | reduction of SpA anchoring ([3]; 4 × IC50 (55.76 μM)): ~85% | SpA surface display / inhibition of SpA anchoring [4]: comparable to those for an srtA-deletion mutant; also recorded: significantly reduced

C[C@]12CCCc3coc(c31)C(=O)c1cc3c(cc12)C(O)CCC3O (stereo partly drawn) [Compound 3, 13,14,15,16-tetrahydroxestoquinol]
IC50 [1]: 51.8 µM | MIC (S. aureus ATCC6538p; ATCC6538P): 395 µM and > 128 µg/mL

C[C@@]12CCCc3coc(c31)C(=O)c1cc3c(O)ccc(OS(=O)(=O)O)c3cc12 [Compound 4, xestoquinol sulfate]
IC50 [1]: > 320 µM | MIC (S. aureus ATCC6538p; ATCC6538P): 320 µM and > 128 µg/mL

C[C@]12CCCc3coc(c31)C(=O)c1cc3c(cc12)C(=O)C=C(NCCS(=O)(=O)O)C3=O [Compound 5, secoadociaquinone B]
IC50 [1]: 131 µM | SrtA inhibitory activity in words [1]: moderate inhibitory activities | MIC (S. aureus ATCC6538p; ATCC6538P): 290 µM and > 128 µg/mL

C[C@H]1OC(=O)c2cc3c(cc21)[C@@]1(C)CC[C@@H](O)c2coc(c21)C3=O [Compound 6, xestolactone A]
IC50 [1]: 47.5 µM | MIC (S. aureus ATCC6538p; ATCC6538P): 395 µM and > 128 µg/mL

O=c1c(O)c(-c2ccc(O)c(O)c2)oc2cc(O)cc(O)c12 [Quercetin, quercetin, reference compound]
IC50 [1]: 158 µM | MIC (S. aureus ATCC6538p; S. aureus ATCC6538p growth, 37 °C, read-out: MIC): > 424 µM and > 128 µg/mL

O=C(c1nc(-c2c[nH]c3cc(Br)ccc23)c[nH]1)c1c[nH]c2cc(O)ccc12 [bromotopsentin]
IC50 (S. aureus SrtA; S. aureus SrtA): 39.6 µM

O=S(=O)(O)c1ccccc1-c1nn2c(-c3ccncc3)nnc2s1 [compound 6e, 3-(4-pyridinyl)-6-(2-sodiumsulfonatephenyl)[1,2,4]triazolo [3,4-b][1,3,4]thiadiazole]
IC50 (S. aureus SrtA; S. aureus SrtA): 9.3 µM

COc1cc2ccnc3c2c(c1O)N(C)C=C3 [isoaaptamine]
IC50 (S. aureus SrtA; S. aureus SrtA): 16.2 µM

O=c1c(O)c(-c2cc(O)c(O)c(O)c2)oc2cc(O)cc(O)c12 [myricetin]
IC50 (S. mutans SrtA): 15.48 µg/mL (≈ 48.6 µM)

O=C(NCCSSCCNC(=O)/C(Cc1ccc(O)c(Br)c1)=N/O)/C(Cc1ccc(O)c(Br)c1)=N/O [psammaplin A]
IC50 (S. aureus SrtA; S. aureus SrtA): 47.4 µM
